The values that follow come from US11071835B2, “Inhalable medicaments” (PHARMACHEMIE B.V., priority 2013, dated 2021).

For the series the following is noted: batch B (formoterol 7544MO) versus batch A (formoterol 7544MA); 160/4.5 μg product; same inhaler, budesonide and lactose. Here is the method: A pharmacokinetic (PK) clinical study was conducted. The PK study assessed a number of key formulation parameters, metered dose (device dose cup volume), formulation blend strength, drug substance particle size and lactose particle size, using a stepwise approach. The PK study was carried out on the middle strength product (160/4.5 μg). […] For both batch A and batch B, the inhaler, the budesonide and the lactose were the same.

The structures appear in SMILES notation. Where a name gives a salt, the structure may show the parent alone.

`COc1ccc(CC(C)NCC(O)c2ccc(O)c(NC=O)c2)cc1` (stereo not shown) [7544MO, formoterol fumarate dihydrate]: the “lowering of formoterol Cmax” value was “more than 20%”.
